Counter-ions that a name gives are not always drawn.
Tested on: delayed hypersensitivity induced by picryl chloride
Assay: Reinforcement Test of Delayed Hypersensitivity (picryl chloride, pinna thickness)
Format: in vivo, ICR male mice
Conditions: 50 mg per Kg orally, simultaneously with sensitization; 24 hours after challenging; average of both pinnae of eight mice; * P<0.05, ** P<0.01 vs control
Description: The delayed hypersensitivity induced on a mouse when picryl chloride(2-chloro-1,3,5-trinitrobenzene) is coated on the skin of the mouse is known as a typical cellular immunity.
The above test system was used for the reinforcement tests of the delayed hypersensitivity.
Groups of eight ICR male mice, each having a body weight of about 30 g, were used for the test.
Sensitization was effected by coating a 3% solution of picryl chloride in a 4/1 mixture of olive oil and acetone on the shaved abdomen of each of the mice.
Simultaneously with the sensitization, a solution or suspension of a compound of the present invention dissolved or suspended in a 0.2% solution of carboxymethylcellulose in a physiological saline was orally administered to the mouse at a dose of 50 mg per Kg of its body weight. To each mouse of a control group, a 0.2% carboxymethylcellulose solution was similarly administered in a physiological saline.
The delayed hypersensitivity was induced 7 days after the sensitization by pinching each of the pinnae of each mouse with a pair of forceps whose tip portions were wrapped with a felt impregnated with a 1% solution of picryl chloride in olive oil and coating the pinnae with the solution. The thickness of each pinna was measured before the challenging and 24 hours after the challenging and the ratio of increase of the thickness (average value of both of the pinnae of the eight mice) is shown in Table 1.
For comparison, a similar test was carried out using Levamisole hydrochloride.
F.t tests were carried out on the thus-obtained test results.

SMILES	Ratio of Increase of Pinna Thickness
CC(Br)C(=O)Nc1nc(-c2ccccc2)cs1 (stereo not drawn) [drawing 11]	32.9%
O=C(Nc1nc(-c2ccccc2)cs1)C(=O)Nc1nc(-c2ccccc2)cs1 [drawing 6]	30.3%
CSc1sc(NC(=O)C(=O)Nc2nc(-c3ccccc3)c(SC)s2)nc1-c1ccccc1 [drawing 9]	27.3%
O=C(Nc1nc(-c2ccc(Cl)cc2)cs1)C(=O)Nc1nc(-c2ccc(Cl)cc2)cs1 [drawing 7]	29.5%
c1ccc([C@H]2CN3CCSC3=N2)cc1 [Levamisole.HCl, Levamisole hydrochloride, reference compound]	31.2%
COc1ccc(-c2csc(NC(=O)C(=O)Nc3nc(-c4ccc(OC)cc4)cs3)n2)cc1 [drawing 8]	36.5%
CC(Cl)C(=O)Nc1nc(-c2ccccc2)cs1 (stereo not drawn) [drawing 10]	36.1%

Tested on: adjuvant arthritis
Assay: Adjuvant Arthritis Test (Mycobacterium tuberculosis adjuvant)
Format: in vivo, SD male rats
Conditions: 5 mg per Kg subcutaneously, 9 times in total; left hind leg; * P<0.05, ** P<0.01 vs control
Description: The adjuvant arthritis in rats caused by the injection of a Mycobacterium tuberculosis adjuvant is often utilized for a model test of chronic rheumatoid arthritis in human.
The mechanism of manifestation of this disease has not completely been elucidated, but it is known that the cellular immunity plays an important role. The immuno-modulating activity of the compounds of the present invention was investigated in accordance with this known adjuvant arthritis test.
8-Week-old SD male rats were used for the test. In 0.1 ml of fluid paraffin, 0.4 mg of dry-dead cells of Mycobacterium tuberculosis were suspended, and the suspension was injected under the heel skin of the right hind leg of each rat. Each of the compounds of the present invention was subcutaneously administered 9 times in total before and after the injection of the adjuvant. Each of the compounds of the present invention was dissolved or suspended in a 0.2% solution of carboxymethylcellulose in physiological saline and administered to each rat at a dose of 5 mg per Kg of the body weight. The swollen volume of the left hind leg was measured during the period of from the day of injection to the day of completion of the test, and the swelling ratio was calculated. For comparison, a similar test was conducted using Levamisole hydrochloride. F.t tests were carried out on the test results obtained.

SMILES	Swell suppression ratio to control group (average value from 16th to 20th days)
CC(Cl)C(=O)Nc1nc(-c2ccccc2)cs1 (stereo not drawn) [drawing 16]	12.1%
O=C(Nc1nc(-c2ccccc2)cs1)C(=O)Nc1nc(-c2ccccc2)cs1 [drawing 12]	51.0%
COc1ccc(-c2csc(NC(=O)C(=O)Nc3nc(-c4ccc(OC)cc4)cs3)n2)cc1 [drawing 14]	14.1%
c1ccc([C@H]2CN3CCSC3=N2)cc1 [Levamisole.HCl, Levamisole hydrochloride, reference compound]	19.8%
O=C(Nc1nc(-c2ccc(Cl)cc2)cs1)C(=O)Nc1nc(-c2ccc(Cl)cc2)cs1 [drawing 13]	51.9%
CSc1sc(NC(=O)C(=O)Nc2nc(-c3ccccc3)c(SC)s2)nc1-c1ccccc1 [drawing 15]	35.5%
CC(Br)C(=O)Nc1nc(-c2ccccc2)cs1 (stereo not drawn) [drawing 17]	20.0%

Tested on: not listed separately
Assay: Acute Toxicity Test through Oral Administration
Format: in vivo
Conditions: ddY male mice, 7 days observation
Description: To each of a group of five ddY male mice, was orally administered a medicine dissolved or suspended in physiological saline.

SMILES	estimated LD50
c1ccc([C@H]2CN3CCSC3=N2)cc1 [Levamisole.HCl, Levamisole hydrochloride, reference compound]	200 to 300 mg/kg

Source: US4501750A, “Thiazole compounds, a process for preparing same and a pharmaceutical composition containing the thiazole compounds” (Mitsui Toatsu Kaguku Kabushiki Kaisha, priority 1981, dated 1985)
